The structures appear in SMILES notation. Where two headings read alike, the source gives them in different places. Where a SMILES comes first, the peptide text is derived from it. The star is where a group is joined. Cbz = O=C(OCc1ccccc1)*

For one series, the target named is DLK (Homo sapiens (Human), UniProt Q12852). In words: KD determination, Eurofins DiscoveRx Kd-Elect. Format: binding. How it is done: (§1) Substituents were varied to improve binding affinity to LZK and selectivity over DLK. KD values were measured by Eurofins DiscoveRx using the Kd-Elect system. Parallel artificial membrane permeability assay (PAMPA) values were measured by Cyprotex.
(§2) KD values were calculated with a standard dose-response curve using the Hill equation: […]
(§3) The Hill Slope was set to −1. Curves were fitted using a non-linear least square fit with the Levenberg-Marquardt algorithm.

The target of series [1] is T1, LZK (Homo sapiens (Human), UniProt O43283). In words: KD determination, Eurofins DiscoveRx Kd-Elect. Format: binding. How it is done: as §1, §2, §3
Series [2] has as its target T1, LZK. In words: Phospho-JNK ELISA in doxycycline-induced CAL33 cells expressing LZK. The format is cell-based. The following applies: for Phospho-JNK levels: 1 μM LZK inhibitor, 1 hour, compared to GNE-3511 control. The source says: The ViraPower HiPerform T-REx Gateway Expression System (Invitrogen) was used to generate cells with tetracycline-inducible expression of LZK. In brief, wild-type (WT) or drug-resistant mutant (Q240S) LZK (cloned into pLenti6.3/TO/V5-DEST vector) and pLenti3.3/TR (for tetracycline repressor expression) were transfected into 293FT cells using Lipofectamine 2000 to generate lentiviral stock. Cell lines were generated by antibiotic selection (blasticidin [Gibco] and geneticin [Gibco]). Doxycycline (Sigma-Aldrich) was used at 1 μg/mL to induce LZK expression.
A PathScan® Phospho-SAPK/JNK (Thr183/Tyr185) Sandwich ELISA Assay (Cell Signaling Technology) was used for ELISA assays following the manufacturer's protocol. In general, 500,000 cells were plated and treated with doxycycline the following day where appropriate and incubated at 37° C. for 48 hours. Cells were treated with the drug compound or control in 5% FBS media for 1 hour. After appropriate treatment time, cells were lysed on ice with 1× Cell Lysis Buffer (Cell Signaling Technology) supplemented with phosphatase and protease inhibitors (Sigma). Each diluted cell lysate was added to Phospho-SAPK/JNK (Thr183/Tyr185)Rabbit mAb Coated microwells in triplicate and incubated overnight at 4° C. Samples were treated with the following antibodies and incubated at 37° C. for 1 hour and 30 minutes, respectively: Detection Antibody and HRP-Linked secondary antibody. Samples were washed between treatments using 1× Wash Buffer according to the manufacturer's protocol. TMB substrate was added to each well and incubated at 37° C. for 10 minutes. Following this, STOPsolution was added to each well and absorbance was measured at 450 nm using iMark™ Microplate Absorbance Reader (Bio-Rad). Graphs display relative phospho-JNK levels.

The next series concerns KYSE70 cells. In words: Colony formation assay. Format: cell-based. How it is done: (§4) Crystal violet assays were used to assess relative cell growth and survival after treatment with specific compounds. In general, cells were plated in triplicate in 12-well plates for 24 hours before drug treatments were added using 10% FBS media. The plates were incubated for 14 days, with the media and drug being replaced every 48 hours. The cells were then washed with phosphate-buffered saline and fixed in ice-cold methanol before being stained with 0.5% crystal violet (Sigma-Aldrich) in 25% methanol. Images were taken using a ChemiDoc MP Imaging System (Bio Rad), and for quantification, the crystal violet stain was dissolved in 33% acetic acid, incubated for 20 minutes with shaking, and read at 595 nm using iMark™ Microplate Absorbance Reader (Bio-Rad). Graphs display percent colony formation relative to the DMSO-treated control sample.

For another series, the system named is OVCAR5 cells. In words: Colony formation assay. Format: cell-based. The method, then: as §4
Series [3] can be described thus: PAMPA (parallel artificial membrane permeability assay). Format: in vitro ADME. How it is done: as §1
The test system of a further series is c-MYC. In words: Western blot of c-MYC abundance. Format: cell-based. The following applies: CAL33 and BICR56 cells depleted of LZK for 48 hours, 10 μM for six hours. The method, then:
Generally, cells were plated in six-well or 35-mm plates for 24 hours, after which doxycycline was added or treatment with specific inhibitor was administered using 5% FBS media for 48 hours. After appropriate treatment time, cells were washed with ice-cold phosphate-buffered saline without Ca and Mg (Quality Biological) and then lysed on ice with RIPA buffer ([…], 1.0% IGEPAL® CA-630, 0.5% sodium deoxycholate, 0.1% SDS, 50 mM Tris, pH 8.0) (Sigma-Aldrich) supplemented with protease inhibitor tablet (Sigma-Aldrich) and phosphatase inhibitor cocktails 2 and 3 (Sigma-Aldrich) followed by centrifugation at 15,000 rpm for 10 minutes at 4° C. Protein concentrations were determined from the cell lysate by using 660 nm Protein Assay Reagent (Pierce). Cell extracts were denatured, subjected to SDS-PAGE, transferred to PVDF membranes (Bio-Rad) and blocked for 2 hours using 5% bovine serum albumin (BSA) in phosphate-buffered saline and 0.1% Tween® 20 (PBS-T). The membranes were incubated with the specific antibodies overnight in 5% BSA/PBST at 4° C. followed by a 1 hour incubation with the appropriate horseradish peroxidase-conjugated secondary antibodies and signal was detected by chemiluminescence (Thermo Fisher).

Sequence of DLK (Q12852 whole entry): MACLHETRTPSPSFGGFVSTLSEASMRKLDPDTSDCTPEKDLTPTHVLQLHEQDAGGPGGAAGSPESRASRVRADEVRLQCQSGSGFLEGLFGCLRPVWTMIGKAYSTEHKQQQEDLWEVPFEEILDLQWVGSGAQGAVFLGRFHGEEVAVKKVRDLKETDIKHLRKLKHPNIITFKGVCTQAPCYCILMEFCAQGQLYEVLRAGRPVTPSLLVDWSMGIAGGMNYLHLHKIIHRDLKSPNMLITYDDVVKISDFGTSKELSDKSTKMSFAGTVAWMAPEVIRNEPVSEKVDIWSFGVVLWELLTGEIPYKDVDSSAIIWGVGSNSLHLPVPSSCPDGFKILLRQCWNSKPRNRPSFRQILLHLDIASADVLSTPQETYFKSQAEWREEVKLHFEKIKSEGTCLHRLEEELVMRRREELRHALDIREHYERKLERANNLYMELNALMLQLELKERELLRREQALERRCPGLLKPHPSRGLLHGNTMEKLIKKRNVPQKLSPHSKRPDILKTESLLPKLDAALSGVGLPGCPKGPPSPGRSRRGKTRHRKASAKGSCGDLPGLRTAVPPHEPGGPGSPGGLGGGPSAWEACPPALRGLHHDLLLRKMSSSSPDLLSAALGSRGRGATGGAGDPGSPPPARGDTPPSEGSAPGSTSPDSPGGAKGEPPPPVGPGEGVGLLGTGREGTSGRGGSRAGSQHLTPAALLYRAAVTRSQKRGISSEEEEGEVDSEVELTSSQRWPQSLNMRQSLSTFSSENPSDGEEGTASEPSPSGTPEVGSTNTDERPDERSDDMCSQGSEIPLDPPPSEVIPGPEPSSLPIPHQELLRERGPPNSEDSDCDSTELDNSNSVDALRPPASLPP
T1 sequence (O43283 whole entry): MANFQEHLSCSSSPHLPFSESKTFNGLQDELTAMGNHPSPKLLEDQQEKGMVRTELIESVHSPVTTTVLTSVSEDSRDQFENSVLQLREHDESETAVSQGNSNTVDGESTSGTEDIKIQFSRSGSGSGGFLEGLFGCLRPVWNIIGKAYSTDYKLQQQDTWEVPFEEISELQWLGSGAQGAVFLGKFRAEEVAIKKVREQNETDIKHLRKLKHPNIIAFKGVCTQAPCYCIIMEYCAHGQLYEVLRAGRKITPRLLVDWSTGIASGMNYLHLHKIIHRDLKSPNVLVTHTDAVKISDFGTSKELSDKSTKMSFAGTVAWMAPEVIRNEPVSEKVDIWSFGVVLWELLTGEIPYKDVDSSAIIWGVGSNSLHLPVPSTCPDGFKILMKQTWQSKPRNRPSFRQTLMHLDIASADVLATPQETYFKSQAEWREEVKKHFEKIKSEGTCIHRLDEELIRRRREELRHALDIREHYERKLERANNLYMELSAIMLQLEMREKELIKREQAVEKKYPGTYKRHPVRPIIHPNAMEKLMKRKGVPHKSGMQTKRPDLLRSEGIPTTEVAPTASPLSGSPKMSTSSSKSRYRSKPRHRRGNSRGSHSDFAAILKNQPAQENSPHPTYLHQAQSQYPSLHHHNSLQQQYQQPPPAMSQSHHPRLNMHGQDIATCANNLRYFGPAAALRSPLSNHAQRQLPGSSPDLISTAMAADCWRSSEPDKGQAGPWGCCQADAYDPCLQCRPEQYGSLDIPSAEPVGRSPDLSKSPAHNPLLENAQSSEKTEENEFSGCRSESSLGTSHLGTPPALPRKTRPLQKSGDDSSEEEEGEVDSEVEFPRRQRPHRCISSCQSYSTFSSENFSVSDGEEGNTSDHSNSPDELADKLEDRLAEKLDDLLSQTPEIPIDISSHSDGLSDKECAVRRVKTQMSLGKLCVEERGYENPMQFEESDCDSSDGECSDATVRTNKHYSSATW

`CC(=O)N1CC(c2cc(Nc3cnc(C4CC4)cn3)nc(N3CC4CC4C3)c2)C1` (stereo not drawn) [compound 218] returned a dissociation constant (Kd) at DLK of 0.03 µM.

Take `CC(=O)N1CCC(c2cc(Nc3ccn(C)n3)nc(N3CCC(F)(F)C3)c2)CC1` [compound 101]: the Kd was more than 10 µM at DLK (in μM) and more than 10 µM at LZK [1] (in μM, read-out: LZK KD). With `CC(=O)N1CCC(c2cc(Nc3nccnc3C)nc(N3CCC(F)(F)C3)c2)CC1` [compound 109], the Kd on DLK (in μM) was more than 10 µM; on LZK [1] (in μM, read-out: LZK KD), more than 10 µM.

Turning to `CC(=O)N1CCC(c2cc(Nc3cnc(C)cn3)nc(N3CCOCC3)c2)CC1` [compound 191], the figures for the Kd at DLK and at LZK [1] (read-out: LZK KD) were 0.17 µM and 0.23 µM, respectively.

As to `Cc1cnc(Nc2cc(C3CCN(C4COC4)CC3)cc(N3CCC(F)(F)C3)n2)cn1` [compound 163], the Kd at LZK [1] (read-out: LZK KD) is 0.02 µM. Turning to `CC(=O)N1CCC(c2cc(Nc3cnc(C)cn3)nc(N(C)CC3CC3)c2)CC1` [compound 186], the Kd on LZK [1] (read-out: LZK KD) worked out at 0.09 µM. Regarding `CC(=O)NC12CC(n3cc(-c4cnc(N)c(C#N)n4)nc3C(O)C(C)C)(C1)C2` (stereo not drawn) [compound 45], the Kd on LZK [1] (read-out: Kd values) was found to be 0.44 µM. On to `CC(=O)N1CCC(c2cc(Nc3cnc(C)cn3)nc(N3CCC(F)(F)C3)c2)CC1` [compound 107], for which the Phospho-JNK levels entry on LZK [2] was “particularly effective”. At DLK, `CC(=O)N1CCC(c2cc(Nc3cnc(C)cn3)nc(N3CCC4(CC4)C3)c2)CC1` [compound 201] returned a Kd of 0.02 µM. `CC(=O)N1CCC(c2cc(Nc3cn(C)cn3)nc(N3CCC(F)(F)C3)c2)CC1` [compound 114]: the Kd was found to be 1.2 µM at DLK and 1.5 µM at LZK [1] (read-out: LZK KD). As to `CC(=O)NC12CC(n3cc(-c4cnc(N)cn4)nc3C(O)C(C)C)(C1)C2` (stereo not drawn) [compound 46], the Kd at LZK [1] (read-out: Kd values) was more than 10 µM. With `CC(=O)N1CCC(c2cc(Nc3cc4[nH]ccc4cn3)nc(N3CCC(F)(F)C3)c2)CC1` [compound 104], the Kd is more than 10 µM on DLK (in μM) and more than 10 µM on LZK [1] (in μM, read-out: LZK KD).

On to `c1nc(C2CC2)cnc1Nc1cc(C2CN(CC3CC3)C2)cc(N2CC3CCC3C2)n1` (stereo not drawn) [compound 228], for which, at LZK [1] (read-out: LZK KD), the Kd was 0.007 µM. `CC(=O)N1CCC(c2cc(Nc3cnc(C)cn3)nc(N3CC4CC(C4)C3)c2)CC1` [compound 204]: the Kd at LZK [1] (read-out: LZK KD) stood at 0.008 µM. Take `CC(=O)N1CC(c2cc(Nc3cnc(C)cn3)nc(N3CCC(F)(F)C3)c2)C1` [compound 165]: the “increase of Kd for DLK over the parent (107)” value at DLK was 6 fold. In the case of `COc1cnc(Nc2cc(C3CCN(C(C)=O)CC3)cc(N3CCC(F)(F)C3)n2)cn1` [compound 115], the dissociation constant (Kd) on LZK [1] (read-out: LZK KD) came out at 0.3 µM. On to `c1nc(C2CC2)cnc1Nc1cc(C2CN(CC3CC3)C2)cc(N2CC3CC3C2)n1` (stereo not drawn) [compound 219], for which the “sensitivity (colony formation)” value in the series with KYSE70 cells and in the series with OVCAR5 cells was “exquisitely sensitive” in each case. In turn, `CC(=O)N1CCC(c2cc(Nc3cnc(C)cn3)nc(N3CC4CC(C3)C4O)c2)CC1` (stereo not drawn) [compound 205] gave a Kd on DLK of 0.1 µM. With `CC(=O)N1CCC(c2cc(Nc3ncccn3)nc(N3CCC(F)(F)C3)c2)CC1` [compound 117], the Kd on DLK (in μM) was more than 10 µM; at LZK [1] (in μM, read-out: LZK KD), more than 10 µM. On to `CC(C)C(O)c1nc(-c2cnc(N)c(OC(F)(F)F)c2)cn1C12CC(N)(C1)C2` (stereo not drawn) [DLK-IN-3, reference compound], for which the Mean permeability in series [3] (PAMPA) was 2.9021 10^−6 cm/sec. For `CC(=O)N1CCC(c2cc(Nc3cncc(C)n3)nc(N3CCC(F)(F)C3)c2)CC1` [compound 108], the Kd on DLK (in μM) was more than 10 µM; at LZK [1] (in μM, read-out: LZK KD), more than 10 µM.

As for `CC(=O)N1CCC(c2cc(Nc3cnc4ccccc4n3)nc(N3CCC(F)(F)C3)c2)CC1` [compound 112], the Kd on DLK (in μM) is more than 10 µM; at LZK [1] (in μM, read-out: LZK KD) it was more than 10 µM. Take `c1nc(C2CC2)cnc1Nc1cc(C2CCN(CC3CC3)CC2)cc(N2CC3CC3C2)n1` (stereo not drawn) [compound 216]: on DLK, the affinity, expressed as Kd, was 0.002 µM. Besides, the “sensitivity (colony formation)” value in the series with KYSE70 cells and with OVCAR5 cells was “exquisitely sensitive” in each case.

Turning to `CC(=O)NC12CC(n3cc(-c4cnc(N)c(C(F)(F)F)n4)nc3C(O)C(C)C)(C1)C2` (stereo not drawn) [compound 44], the Kd on LZK [1] (read-out: Kd values) turned out to be 0.094 µM. With `CC(=O)NC12CC(n3cc(-c4cnc(N)c(OC(F)(F)F)c4)nc3C(O)C(C)C)(C1)C2` (stereo not drawn) [DLK-IN-2, reference compound], the Mean permeability in series [3] (PAMPA) is reported as 0.5352 10^−6 cm/sec. For `CC(C)C[C@@H](C=O)NC(=O)[C@H](CC(C)C)NC(=O)[C@H](CC(C)C)NC(=O)OCc1ccccc1` [MG132] (Cbz-Leu-Leu-Leu-aldehyde), the “c-MYC levels in cells depleted of LZK” value in the series with c-MYC is “rescued decreases in the c-MYC levels”. Consider `CC(=O)N1CCC(c2cc(Nc3cnccn3)nc(N3CCC(F)(F)C3)c2)CC1` [compound 100], for which, at LZK [2] (ELISA assay), the “Inhibition of downstream JNK pathway activation” value is on record as “effective inhibitor”. In addition, in series [3], the Mean permeability is 16.9436 10^−6 cm/sec and the PAMPA is on record as 16.94.

On DLK, `CC(=O)N1CCC(c2cc(Nc3cnc(C)cn3)nc(N3CCC4(CC3)CC4)c2)CC1` [compound 208] came in with a Kd of 0.1 µM. For `CC(=O)N1CCC(c2cc(Nc3cnc(C)cn3)nc(N3CCC(F)(F)CC3)c2)CC1` [compound 192], the Kd on DLK is 0.12 µM; at LZK [1] (read-out: LZK KD), 0.065 µM. On to `Cc1cnc(Nc2cc(C3CCN(C4CCC4)CC3)cc(N3CCC(F)(F)C3)n2)cn1` [compound 162], for which, at LZK [2], the “dose-dependent inhibition of LZK” value was “dose-dependent inhibition”. `Cc1cnc(Nc2cc(C3CCN(C4CCCC4)CC3)cc(N3CCC(F)(F)C3)n2)cn1` [compound 164]: at LZK [2], the “dose-dependent inhibition of LZK” value is on record as “dose-dependent inhibition” and the Phospho-JNK levels entry is on record as “more effective than GNE-3511”. Also, the IC50 at LZK [2] (read-out: inhibition of LZK IC50) was approximately 100 nM. Also, the “sensitivity (colony formation)” value in the series on OVCAR5 cells is recorded as “sensitive”. As for `CC(=O)N1CCC(c2cc(Nc3cnc(C)cn3)nc(N3CC4CCC4C3)c2)CC1` (stereo not drawn) [compound 207], the equilibrium dissociation constant (Kd) at DLK worked out at 0.18 µM; on LZK [1] (read-out: LZK KD), 0.00097 µM. For the same molecule, the “selectivity for LZK over DLK” value on LZK [1] (from KD values) was 180 fold.

For the origin of these results see US20250032489A1, “MIXED LINEAGE KINASE INHIBITORS AND METHODS OF USE” (The U.S.A., as represented by the Secretary, Department of …, priority 2022, published 2025).
